Source: patent US11471425B2, “Pharmaceutical composition containing broussochalcone a as active ingredient for treatment of inflammatory bowel disease” (BIOPHARMARESEARCHLAB CO., LTD., priority 2017, dated 2022)
Where two headings read alike, the source gives them in different places.

Experiments:
[1] = system: ulcerative colitis-induced mice; assay: Disease activity index (DAI) in DSS-induced ulcerative colitis mice; assay type: in vivo, C57BL/6J mice; conditions: 3% (w/v) DSS in drinking water from day 3; specimen orally at 100 μl/10 g bw; compared with control group
Procedure: The normal group received a mixture of 9 ml of Koliphor EL (Sigma, USA) and 1 ml of DMSO at the same dose as the BA experimental group. The normal group was allowed to access water ad libitum during the experimental period.
The control group received a mixture of 9 ml of Koliphor EL (Sigma, USA) and 1 ml of DMSO at the same dose as the BA experimental group.
During the experimental period, the mice were caused to defecate once a day. Feces appearance was observed and fecal occult blood was observed using the Beckman Coulter Hemoccult Single Slides (Beckman Coulter, Inc., USA). The observation results were expressed in scores according to the criteria in Table 2.
Disease activity index (DAI)=(Fecal consistency+fecal color)/2

[2] = system: ulcerative colitis-induced mice; assay: Colon length in DSS-induced ulcerative colitis mice; assay type: in vivo, C57BL/6J mice; conditions: 3% (w/v) DSS from day 3; oral 100 μl/10 g bw; colon extracted on day 11
Procedure: (§1) On day 11, the mice were sacrificed by intraperitoneal injection of Alfaxan (Jurox Pty Limited, Australia), and then the colon, which ranges from the cecum site to the site immediately before the anus, was extracted. After all colonic contents in the colon tissues were removed, some specimens were fixed in 4% (v/v) paraformaldehyde fixative for use as pathological specimens, and the other specimens were stored frozen at −80° C. for molecular biological analysis.

[3] = Changes in body weight of ulcerative colitis-induced mice; assay type: in vivo, C57BL/6J mice; conditions: 3% (w/v) DSS from day 3; oral 100 μl/10 g bw; measured daily from day 0
Procedure: Since ulcerative colitis-induced animals lose weight, a symptom-alleviating effect was checked by measuring changes in body weight.
For the respective normal group, control group, positive control group, and BA experimental group prepared in Example 1, the body weight was measured using a precision balance at the start of the experiment (day 0), and changes in body weight were measured at daily intervals for comparison.

myeloperoxidase (MPO) = assay: Myeloperoxidase (MPO) activity in colon tissues of ulcerative colitis-induced mice; assay type: in vivo, C57BL/6J mice; conditions: colon tissue, day 11; absorbance at 412 nm, average of three measurements
Procedure: as §1
For the mice for which ulcerative colitis had been induced by DSS, activity of MPO, an inflammatory indicator, was checked.
The colon tissues stored frozen in Example 3 were analyzed using the […] Colorimetric Activity Assay Kit (Sigma, USA), in which absorbance at a wavelength of 412 nm was measured three times to calculate an average value.

[4] = system: colon tissues of ulcerative colitis-induced mice; assay: Histological analysis (H&E staining) of colon tissues of ulcerative colitis-induced mice; assay type: in vivo, C57BL/6J mice; conditions: 4 μm paraffin sections, colon extracted on day 11
Procedure: as §1
The colon tissues stored frozen in Example 3 were fixed in 4% paraformaldehyde for 48 hours and then washed with PBS. The fixed tissues were embedded in paraffin, cut into 4 μm thickness, and stained with hematoxylin and eosin. Then, the stained tissues were observed under a microscope.

[5] = Food intake by ulcerative colitis-induced mice; conditions: 3% (w/v) DSS from day 3; oral 100 μl/10 g bw; measured daily, day 0 to day 11
From the text: (§2) In addition, changes in body weight and food intake were observed by measuring the body weight and food intake at daily intervals from the start (day 0) to the end (day 11) of the animal experiment.
(§3) 7-Week-old C57BL/6J mice were purchased from Central Lab. Animal Inc. (Seoul, Korea) and acclimatized for 7 days to an experimental environment, which was maintained at constant humidity and constant temperature under a 12-hour light/dark cycle, while allowing them to access solid feed and water ad libitum. After 7 days of acclimatization period, the mice were divided into normal group, control group, positive control group (sulfasalazine), and BA experimental group (broussochalcone A) (Table 1).
(§4) Sulfasalazine (Sigma, USA) was quantified at 150 mg and dissolved in 1 ml of DMSO to prepare an SUL solution. 9 ml of Koliphor EL was diluted in PBS to prepare a 10% (v/v) Koliphor solution. The SUL solution was mixed with 9 ml of 10% (v/v) Koliphor solution to prepare an SUL specimen. Then, the SUL specimen was quantified and orally administered at 100 μl/10 g·body weight (bw) to the positive control group. […]
(§5) Broussochalcone A (Natural Products Bank, Korea) was quantified at 20 mg and dissolved in 1 ml of DMSO to prepare a BA solution. […] Then, the BA specimen was quantified and orally administered at 100 μl/10 g·body weight (bw) to the BA experimental group. […]

[6] = mouse, in vivo, po
From the text: as §2, §3, §4, §5

SMILES | Disease activity index (DAI) = (fecal consistency + fecal color)/2 [1] | colon length compared with the normal group (in words) [2] | decrease in body weight [3] | MPO activity as compared with the normal group (in words) (myeloperoxidase (MPO)) | histological changes in colon tissue: structure of the mucosa [4] | food intake compared with the normal group [5] | colon length shorter than that of the normal group [2] | increase in MPO activity as compared with the normal group (myeloperoxidase (MPO)) | histological changes in colon tissue: goblet cells and surface epithelium [4] | histological changes in colon tissue: immune cell penetration [4] | food intake compared with the normal group [6]
CC(C)=CCc1cc(C(=O)/C=C/c2ccc(O)c(O)c2)c(O)cc1O [broussochalcone A] | lower DAI than the control group | colon length similar to that of the normal group | about 5% | did not exhibit significantly different MPO activity as compared with the normal group | the structure of the mucosa was maintained | an increase in food intake as compared with the normal group |  |  |  |  | 
O=C(O)c1cc(/N=N/c2ccc(S(=O)(=O)Nc3ccccn3)cc2)ccc1O [sulfasalazine, Sulfasalazine] | high DAI |  | about 20% |  | the structure of the mucosa was partially maintained |  | about 2.8 cm | about 1.5 fold | had lost goblet cells and surface epithelium | many immune cells had penetrated the colon tissues | a decrease in food intake
